In this assay the test system is T. vaginalis isolates. In words: Sensitivity of T. vaginalis isolates to metronidazole (serial dilution MIC by immobilisation; lysis method for amastigote forms). The assay is classed as cell-based, Trichomonas vaginalis. Conditions: for MIC: Trichomonas vaginalis. How it is done: Then, the sensitivity of T. vaginalis to metronidazole was examined in vitro, using as an indicator the immobilisation of the trichomonad by the test-substance. For the sensitivity test, 90% or more of the protozoa were required to be motile. The sensitivity of T. vaginalis isolates to metronidazole was determined using serials dilution and the minimum inhibitory concentration (MIC) method. 4.0 ml of the medium was placed in test tubes and mixed with 0.5 ml of solution various concentrations of metronidazole—from 0.25 to 1000 μg/ml, or 1 mg/ml).
Then, 0.5 ml of pathogenic culture containing a known concentration of T. vaginalis (cells/ml) was added to the test tubes. Media without the test substance was used as a control. Vaseline was added to the surface (0.5 mm layer) of the tubes to create anaerobic conditions necessary for the growth of T.vaginalis. The test tubes were then placed in a thermostat at 37° C. Results were recorded 48 and 96 hours after inoculation.
The sensitivity of trichomonad to metronidazole was determined based on the minimum inhibitory concentration (MIC), which causes immobilisation of all cells of T.vaginalis. The strains were considered as resistant to metronidazole, when immobilisation occurred at concentration of metronidazole exceeding 15 μg/ml.
The MIC method cannot be used when atypical, amastigote (lacking flagella) T. vaginalis are present. Instead, a common in vitro lysis method for determining the sensitivity to antiprotozoal medications was used. Lysis of all trichomonas is an indicator of the efficacy of the test substance. Nutrient media containing trichomonas without metronidazole was used as a control. Metronidazole, at concentrations of 10, 15, 25, and 50 μg/ml was used in this experiment. Strains that lysed at a concentration of 25 μg/ml were considered resistant to metronidazole.

Each structure is given as a SMILES string. Values after ≈ are worked out from the molar mass of the structure shown.

This is an account of results in US9669061B2, “Medicinal agent exhibiting antiprotozoal activity to Trichomonas vaginalis in an in-vitro model system” (Viktor Ivanovich Roschin, priority 2008, dated 2017).

Regarding `Cc1ncc([N+](=O)[O-])n1CCO` [Metronidazole, metronidazole], the MIC by setting is: (isolate 1 (actively mobile)) 15 µg/mL (≈ 87.6 µM); (isolate 2 (actively mobile)) 15 µg/mL (≈ 87.6 µM); (isolate 3 (actively mobile)) 25 µg/mL (≈ 146 µM); (isolate 4 (amastigote)) 50 µg/mL (≈ 292 µM); (isolate 5 (amastigote)) 25 µg/mL (≈ 146 µM); (isolate 6 (amastigote)) 50 µg/mL (≈ 292 µM). Besides, the MIC (isolate 7 (amastigote)) came out at 25 µg/mL (≈ 146 µM); the MIC (isolate 8 (amastigote)) was 25 µg/mL (≈ 146 µM); the minimal inhibitory concentration (MIC) (isolate 9 (amastigote)) is > 50 µg/mL; the MIC (isolate 10 (amastigote)) was determined as 50 µg/mL (≈ 292 µM); the minimum inhibitory concentration (MIC) (strains 4, 6, 9 and 10) is > 25 µg/mL. Further, the “number of isolates (out of 10) on which metronidazole had an effect” value (metronidazole 15 μg/ml) is given as 2. For the same molecule, under “the rest of the isolates (not affected at 15 μg/ml)”, the “resistance of isolates to metronidazole” value was “resistant”.

In general, MIC refers to the lowest concentration found to suppress growth. Lower therefore signals inhibition by little substance.
